Results: patent US12691070B2, “Cationic lipids and preparation method thereof” (RiboX Therapeutics HK Limited, priority 2023, dated 2026)

Experiments:
[1] = LNP size and polydispersity index (PDI) by dynamic light scattering; type: physicochemical; conditions: for Size: in nm (unit assumed)
Method in brief: (§1)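 Dynamic light scattering and zeta potential measurements were run on PBS-dialyzed LNPs, which had been formed by microfluidic mixing at 12 ml/min with final lipid at 1.5 mM to 6 mM. RNA content and percent encapsulation were determined by Ribogreen with and without Triton X-100.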

[2] = LNP zeta potential (Zetasizer); type: physicochemical
Method in brief: as §1

[3] = RNA encapsulation efficacy by Quant-IT Ribogreen kit; type: physicochemical; conditions: for Encapsulation Efficiency %: LNP with cirRNA (SEQ ID NO: 1); for Encapsulation Efficiency: LNP with mRNA (SEQ ID NO: 2)
Method in brief: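 Ribogreen read-out: encapsulation = 100% − (signal of intact RNA-LNPs / signal with Triton X-100). Particles: ionizable lipid:DSPC:Chol:DMG-PEG2000 50:10:38.5:1.5, ionizable lipid:ribonucleotide 15 or 6, final lipid 1.5–6 mM, PBS-dialyzed.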

[4] = system: Hep G2 cells; experiment: In vitro expression of firefly-luciferase, Hep G2; type: cell-based
Method in brief: (§2)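 Both cell lines receive RNA-LNPs carrying firefly-luciferase RNA at 100 ng/mL. Lysis follows washing at 72 h post-transfection, and luciferase activity is then quantified on a luminometer using a commercial luciferase assay reagent.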

[5] = system: RAW 264.7 cells; experiment: In vitro expression of firefly-luciferase, RAW 264.7; type: cell-based
Method in brief: as §2

[6] = system: Hep G2 cells; experiment: In vitro toxicity (CellTiter-Glo cell viability), Hep G2; type: cell-based;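 also: percent of untreated cells luminescence signal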
Method in brief: (§3)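 Luminescent ATP read-out (CellTiter-Glo) gives the viability value, taken 72 h after cells were exposed to RNA-loaded lipid nanoparticles at 1 μg/mL.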

[7] = system: RAW 264.7 cells; experiment: In vitro toxicity (CellTiter-Glo cell viability), RAW 264.7; type: cell-based;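 also: percent of untreated cells luminescence signal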
Method in brief: as §3

[8] = system: BALB/C mice; experiment: In vivo expression, whole-body luminescence (IVIS)
Protocol: 6-8 week old, female BALB/C mice were injected with 0.05 mg*kg-1 of RNA-LNPs encoding for firefly-luciferase by intravenous injection. At 6 hours post injection, animals were intraperitoneally injected with 15 mg/ml of Luciferin substrate and whole-body luminescence was determined by a bioluminescent in vivo imaging system (IVIS).

[9] = system: MCP-I; experiment: MCP-I cytokine elevation in serum; type: in vivo; conditions: cirRNA (SEQ ID NO: 1) LNPs, mice
Protocol: 6-8 week old, female BALB/C mice were injected with 0.5 mg*kg-1 of RNA LNPs by intravenous injection. At 2 and 24 hours post injection, animals were bled and sera concentrations of MCP-I were determined by an immunoassay (Luminex).

[10] = system: Alanine Aminotransferase (ALT); experiment: Liver enzyme elevation in serum, ALT; type: in vivo; conditions: cirRNA (SEQ ID NO: 1) LNPs, BALB/C mice, intravenous 0.5 MPK
Protocol: (§4) 6-8 week old, female BALB/C mice were injected with 0.5 mg*kg-1 of RNA LNPs by intravenous injection. At 2 and 24 hours post injection, animals were bled and sera concentrations of Alanine Aminotransferase (ALT) and Aspartate Aminotransferase (AST) were determined by a blood chemistry analyzer.

[11] = system: Aspartate Aminotransferase (AST); experiment: Liver enzyme elevation in serum, AST; type: in vivo; conditions: cirRNA (SEQ ID NO: 1) LNPs, BALB/C mice, intravenous 0.5 MPK
Protocol: as §4

[12] = system: BALB/C mice; experiment: Local tolerance determination by footpad injection; type: in vivo; conditions: cirRNA (SEQ ID NO: 1) LNP, 0.175 mg*kg-1 subcutaneous into the footpad, 24 hours post minus prior
Protocol: 6-8 week old, female BALB/C mice were injected with 0.175 mg*kg-1 RNA LNPs by subcutaneous injection into the footpad. Prior to, and 24 hours post injections, injected footpad thickness was determined by a caliper.

[13] = cirRNA (SEQ ID NO: 1) LNPs, firefly-luciferase luminescence, Hep G2 cells
[14] = mRNA (SEQ ID NO: 2) LNP, 100 ng/mL, 72 hours post transfection, luciferase activity
[15] = cirRNA (SEQ ID NO: 1) LNPs, firefly-luciferase luminescence, RAW 264.7 cells
[16] = cirRNA (SEQ ID NO: 1) LNPs, Hep G2 cells
[17] = mRNA (SEQ ID NO: 2) LNP, 1 μg/mL, 72 hours post transfection
[18] = cirRNA (SEQ ID NO: 1) LNPs, RAW 264.7 cells
[19] = cirRNA (SEQ ID NO: 1) LNPs, BALB/C mice
[20] = mRNA (SEQ ID NO: 2) LNP, 0.05 mg*kg-1 intravenous, 6 hours post injection

SMILES | PDI ([1]; LNP with cirRNA (SEQ ID NO: 1)) | Size ([1]; LNP with cirRNA (SEQ ID NO: 1)) | PDI ([1]; LNP with mRNA (SEQ ID NO: 2)) | Size ([1]; LNP with mRNA (SEQ ID NO: 2)) | Zeta (mV) ([2]; LNP with cirRNA (SEQ ID NO: 1)) | Zeta (mV) ([2]; LNP with mRNA (SEQ ID NO: 2)) | Encapsulation Efficiency % [3] [%] | Encapsulation Efficiency [3] [%] | In vitro Expression HepG2 [4, 13] | In vitro Expression HepG2 [4, 14] | In vitro Expression RAW [5, 15] | In vitro Expression RAW [5, 14] | In vitro Viability HepG2 [6, 16] [%] | In vitro Viability HepG2 [6, 17] [%] | In vitro Viability RAW [7, 18] [%] | In vitro Viability RAW [7, 17] [%] | In vivo Expression (Whole Body) [8, 19] | In vivo Expression (Whole Body) [8, 20] | MCP-I in Sera 2 hours After 0.5 MPK Injection [9] [pg/mL] | MCP-I in Sera 24 hours After 0.5 MPK Injection [9] [pg/mL] | other results
CCCCCCCCCCC(CCCCCCCC)COC(=O)CCCCCN(CCCCCC(=O)OCC(CCCCCCCC)CCCCCCCCCC)CCOC(=O)NCCN1CCCCC1 (centres unmarked) [Lipid 169] | 0.003 | 73.59 | 0.07881 | 88.09 | −2.92 | −0.8755 | 95 | 87.64 | 1.94E+06 | 1.59E+07 | 5.36E+05 | 2.87E+06 | 88 | 93 | 82 | 83 | 4.92E+08 | 1.46E+09 | 509.14 | 80.18 | ALT in Sera (IU/L) 2 hours After 0.5 MPK Injection [10]: 65.40 IU/L; ALT in Sera (IU/L) 24 hours After 0.5 MPK Injection [10]: 57.80 IU/L; AST in Sera (IU/L) 2 hours After 0.5 MPK Injection [11]: 129.50 IU/L; AST in Sera (IU/L) 24 hours After 0.5 MPK Injection [11]: 87.00 IU/L; Footpad Thickness (24 h−0 h, mm) [12]: 0.84 mm
CCCCCCCCCCC(CCCCCCCC)COC(=O)CCCCCN(CCCCCC(=O)OCC(CCCCCCCC)CCCCCCCCCC)CCOC(=O)NCCN(C)C (centres unmarked) [Lipid 170] | 0.08 | 96.82 | 0.0744 | 165.8 | −0.455 | 3.233 | 97 | 86.13 | 2.91E+07 | 2.23E+08 | 3.14E+06 | 2.87E+02 | 31 | 124 | 92 | 82 | 3.35E+08 | 1.02E+09 | 1322.04 | 922.24 | ALT in Sera (IU/L) 2 hours After 0.5 MPK Injection [10]: 62.53 IU/L; ALT in Sera (IU/L) 24 hours After 0.5 MPK Injection [10]: 66.47 IU/L; AST in Sera (IU/L) 2 hours After 0.5 MPK Injection [11]: 175.67 IU/L; AST in Sera (IU/L) 24 hours After 0.5 MPK Injection [11]: 120.57 IU/L; Footpad Thickness (24 h−0 h, mm) [12]: 0.95 mm
